{
  "source": "patent US20250206754A1",
  "about": "“PAN-CHEMOKINE ANTAGONISTS FOR USE IN TREATING CANCER AND IMMUNE DISORDERS” (\"Micar Innovation\" LTD., priority 2022, published 2025)",
  "key": {"[1]": {"biological_target": "T1, CCR7 (Homo sapiens, UniProt P32248)", "T1 construct": "expressed in transfected cells", "T1 sequence (P32248 25-378)": "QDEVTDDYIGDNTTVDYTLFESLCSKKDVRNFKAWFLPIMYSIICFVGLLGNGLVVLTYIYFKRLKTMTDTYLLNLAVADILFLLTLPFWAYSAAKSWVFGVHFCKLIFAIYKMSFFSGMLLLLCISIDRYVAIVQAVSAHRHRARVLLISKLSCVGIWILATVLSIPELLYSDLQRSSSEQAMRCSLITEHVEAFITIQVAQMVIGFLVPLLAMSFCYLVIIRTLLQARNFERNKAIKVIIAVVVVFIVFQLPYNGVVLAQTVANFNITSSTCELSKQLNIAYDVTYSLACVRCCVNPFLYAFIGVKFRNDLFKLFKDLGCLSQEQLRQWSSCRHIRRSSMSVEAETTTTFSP", "assay": "TANGO β-arrestin antagonist assay, CCR7", "format": "cell-based", "procedure": "(§1) Selected compounds were initially sent for both antagonist and agonist TANGO β-arrestin assays. […] Replacement only on the amide group with CN led to strong activity decrease in β-arrestin assay: only 31% activity at about 30 μM and similar one at 100 μM (Table 1). Five more derivatives with replaced amide group were also tested in parallel by Ca^2+ mobilization assay and they all were not active up to the tested concertation of 100 μM.\nIn current CCR7-β-arrestin antagonistic assay a Hill coefficient of 15.1 was obtained, without any transformation of the data. Instead for CCR1, CCR2, CCR3 and CCR5 coefficients much closer to one were calculated, 2.3, 3.1, 2.6 and 1.9, respectively. Moreover, the increase of the activity for CCR3 and CCR5 were over 50-folds for concentrations where the activity raised. […] Further, the CCR7-β-arrestin antagonistic assay was repeated and retrieved almost identical results."}, "[2]": {"biological_target": "T1, CCR7", "assay": "TANGO β-arrestin agonist assay, CCR7", "format": "cell-based", "procedure": "as §1"}, "[3]": {"biological_target": "T2, CCR3 (Homo sapiens, UniProt P51677)", "T2 sequence (P51677 1-355)": "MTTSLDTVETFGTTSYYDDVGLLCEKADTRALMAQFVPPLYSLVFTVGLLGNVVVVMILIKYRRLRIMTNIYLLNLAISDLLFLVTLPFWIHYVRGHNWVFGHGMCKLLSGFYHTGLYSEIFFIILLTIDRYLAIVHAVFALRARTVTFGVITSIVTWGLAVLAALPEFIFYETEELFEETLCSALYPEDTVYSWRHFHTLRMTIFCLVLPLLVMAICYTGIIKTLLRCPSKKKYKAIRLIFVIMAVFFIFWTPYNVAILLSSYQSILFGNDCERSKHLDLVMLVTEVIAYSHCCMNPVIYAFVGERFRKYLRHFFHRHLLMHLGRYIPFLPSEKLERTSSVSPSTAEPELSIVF", "assay": "β-arrestin selectivity assay, CCR3", "format": "cell-based"}, "[4]": {"biological_target": "T3, CCR5 (Homo sapiens, UniProt P51681)", "T3 sequence (P51681 whole entry)": "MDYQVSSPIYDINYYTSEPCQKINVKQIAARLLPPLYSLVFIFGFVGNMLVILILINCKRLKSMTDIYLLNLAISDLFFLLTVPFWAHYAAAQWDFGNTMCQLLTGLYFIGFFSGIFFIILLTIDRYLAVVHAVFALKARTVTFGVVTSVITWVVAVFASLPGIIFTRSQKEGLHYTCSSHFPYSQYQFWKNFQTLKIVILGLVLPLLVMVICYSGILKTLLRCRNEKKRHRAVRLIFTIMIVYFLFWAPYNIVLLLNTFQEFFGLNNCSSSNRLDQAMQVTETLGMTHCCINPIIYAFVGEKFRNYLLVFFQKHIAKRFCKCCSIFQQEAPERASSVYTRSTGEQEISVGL", "assay": "Ca^2+ mobilization assay, CCR5", "format": "cell-based", "procedure": "(§2) The Kb values are also retrieved. […] Finally, to make it more clear the second messenger output for Hit1 and confirm the nature of β-arrestin bias GTPγS and ERK assays were also performed. […] Considering that the ERK is directly related to β-arrestin path and binds directly to the arrestin it was concluded that this compound is β-arrestin biased (Table 1 and FIGS. 3A and 3B). Finally, several other potential hits were identified but the activities were in a range of 25-35% at 100 μM concentration and they were discarded in this disclosure."}, "[5]": {"biological_target": "T3, CCR5", "assay": "cAMP assay, CCR5", "format": "cell-based", "conditions": "CCR5 (data not shown)", "procedure": "as §2"}, "[6]": {"biological_target": "T1, CCR7", "assay": "GTPγS assay, CCR7", "format": "biochemical", "procedure": "as §2\nCurrent diversity data provide also several additional experimental evidences which are against colloid aggregation activity dependence: • Almost identical steep dose-response curves have been observed for the natural CCL19 and CCL21 agonists. Thus, it seems that this is not unique to Hit 1 case. • Hill coefficient of 1.5 in the ERK experiments and no steep slope (FIG. 3A). Moreover, the ERK dose-response curve looks like a typical single antagonist ligand. • At the same conditions as in the ERK assay the compound was in particular not active in the GTPγS assay up to 100 μM (FIG. 3B). […]"}, "[7]": {"tested_on": "4T-1-luc cells", "format": "in vivo", "conditions": "Day 15"}, "[8]": {"tested_on": "IL17 release", "assay": "Inhibition of IL17 release (inflammation model)", "conditions": "Homo sapiens, read-out: EC50, IL17 release"}, "[9]": {"tested_on": "MB231cell line", "assay": "Migration assay by MB231 cell line with CCL19/CCL21", "conditions": "100 nM of CCL19/CCL21", "experimental": "(§3) For this purpose a model for the inhibition of CCL2 release from IL-4, IL-13, IL-22 and IFNγ-stimulated primary human keratinocytes (Eczematous inflammation) was used and also an assay for the inhibition of IL-8 release from IL-17A and TNFα (Psoriatic inflammation). […] Finally, migration assay by MB231cell line was performed."}, "[10]": {"tested_on": "IL-8 release", "conditions": "Homo sapiens, read-out: EC50, IL8 release", "experimental": "as §3"}},
  "note": "Where two headings read alike, the source gives them in different places.",
  "data": [
    {"smiles": "NC(=O)c1ccccc1Oc1ncnc2sc(-c3ccccc3)cc12", "note": "[Hit 1, 2-({6-phenylthieno[2,3-d]pyrimidin-4-yl}oxy)benzamide]", "values": [
      {"measurement": "inhibition at 100 µM", "setting": "[1]; 100 μM concentration, read-out: β-arrestin assay (100 μM), Percent of inhibition", "value": 110, "unit": "%"},
      {"measurement": "Hill coefficient", "setting": "[1]; CCR7-β-arrestin antagonistic assay, without any transformation of the data", "value": 15.1},
      {"measurement": "IC50", "setting": "[1]; TANGO β-arrestin antagonist assay, CCR7, read-out: IC50, antagonistic activity", "value": 9.1, "unit": "µM"},
      {"measurement": "Hill slope", "setting": "[1]; same data transformed to log units, normalized, GraphPad 6", "value": 11.2},
      {"measurement": "IC50", "setting": "[1]; same data transformed to log units, normalized, GraphPad 6, read-out: IC50", "value": 9.2, "unit": "µM"},
      {"measurement": "agonist activity", "setting": "[2]", "value": "no any agonist activity"},
      {"measurement": "Hill coefficient", "setting": "[3]", "value": 2.6},
      {"measurement": "IC50", "setting": "[3]", "value": 4.4, "unit": "µM"},
      {"measurement": "Kb", "setting": "[4]", "value": 10.5, "unit": "µM"},
      {"measurement": "Hill-Slope", "setting": "[4]; Ca^2+ assay", "value": 1.2},
      {"measurement": "IC50", "setting": "[4]; Ca^2+ mobilization assay", "value": 55, "unit": "µM"},
      {"measurement": "IC50", "setting": "[5]", "value": 50, "unit": "µM"},
      {"measurement": "antagonist activity", "setting": "[6]; GTPγS assay, highest concentration of 100 μM", "value": 16, "unit": "%"},
      {"measurement": "activity in GTPγS assay", "setting": "[6]; up to 100 μM", "value": "not active"},
      {"measurement": "Animal bioluminescence imaging intensity, Mean", "setting": "[7]; G2 5 mg/kg p.o. QD", "value": "1.69E+08 10^8 p/s"},
      {"measurement": "Animal bioluminescence imaging intensity, Mean", "setting": "[7]; G3 30 mg/kg p.o. QD", "value": "1.09E+08 10^8 p/s"},
      {"measurement": "EC50", "setting": "[8]", "value": 3.78, "unit": "µM"},
      {"measurement": "reduction of CCL19/CCL21-induced migration", "setting": "[9]", "value": 10, "unit": "folds"},
      {"measurement": "migratory cells", "setting": "[9]; control 100%, CCL19/CCL21 200%", "value": 20, "unit": "%"},
      {"measurement": "EC50", "setting": "[10]", "value": 733, "unit": "nM"}
    ]}
  ]
}
